The results in this text go back to patent US7638494B2, “G-type peptides to ameliorate atherosclerosis” (The Regents of the University of California, priority 2002, dated 2009).

Like-named read-outs stand apart in the source and are kept apart here.

Experiment [1] concerns Human aortic endothelial cells. The experiment in a line: Prevention of LDL-induced monocyte chemotactic activity by pre-treatment (pre-incubation) of artery wall cells. Type of experiment: cell-based. The settings on record: pre-incubation 6 hrs, washed, then control human LDL 200 μg protein/ml overnight; relative to D-4F (FIG. 2). As to the method:
FIG. 2 illustrates a comparison of the effect of D-4F with the effect of D-J336 on the prevention of LDL induced monocyte chemotactic activity in a pre-incubation. Human aortic endothelial cells were pre-incubated with D-J336 or D-4F at 4, 2, and 1 μg/ml for DJ336 or 100, 50, 25, and 12.5 μg/ml for D-4F for 6 hrs. The cultures were then washed and were incubated with medium alone (no addition), or with control human LDL (200 μg protein/ml), or with control human LDL+control human HDL (350 μg HDL protein/ml) as assay controls. The wells that were pre-treated with peptides received the control human LDL at 200 μg protein/ml. Following overnight incubation, the supernatants were assayed for monocyte chemotactic activity.

In another experiment the test system is LDL receptor null mice. Description: HDL protective capacity in LDL receptor null mice given peptide in drinking water. The format is in vivo. The method, then: D-4F designated as F, or the apoJ peptide made from D amino acids (D-J336, designated as J) was added to the drinking water of LDL receptor null mice (4 per group) at 0.25 or 0.5 mg per ml of drinking water. After 24- or 48-hrs blood was collected from the mice and their HDL was isolated and tested for its ability to protect against LDL-induced monocyte chemotactic activity. Assay controls included culture wells that received no lipoproteins (no addition), or control human LDL alone (designated as LDL, 200 μg cholesterol/ml), or control LDL+control human HDL (designated as +HDL, 350 μg HDL cholesterol). For testing the mouse HDL, the control LDL was added together with mouse HDL (+F HDL or +J HDL) to artery wall cell cultures. The mouse HDL was added at 100 μg cholesterol/ml respectively.

For experiment [2], the system named is apo E null mice. The experiment in a line: Protection against LDL-induced monocyte chemotactic activity by HDL from apo E null mice given oral peptides. The format is in vivo. The settings on record: for potency compared with D-4F in enhancing HDL protective capacity: apo E null mice, added to the drinking water (FIG. 4).
Experimental: FIG. 4 illustrates the effect of oral apoA-1 peptide mimetic and apoJ peptide on HDL protective capacity. […] After 24 hrs blood was collected, plasma fractionated by FPLC and fractions containing LDL (designated as mLDL for murine LDL) and fractions containing HDL (designated as mHDL) were separately pooled and HDL protective capacity against LDL oxidation as determined by LDL-induced monocyte chemotactic activity was determined. For the assay controls the culture wells received no lipoproteins (no additions), mLDL alone (at 200 μg cholesterol/ml), or mLDL+standard normal human HDL (designated as Cont. h HDL, at 350 μg HDL cholesterol/ml).
For testing the murine HDL, mLDL together with murine HDL (+F mHDL or +J mHDL) were added to artery wall cell cultures. […] The murine HDL was used at 100 μg cholesterol/ml.
Experiment [3] relates to apo E null mice. Description: LDL susceptibility to oxidation: ability of LDL from apoE null mice given oral peptides to induce monocyte chemotactic activity. Type of experiment: in vivo. The note with it: added to the drinking water, 24 hrs (FIG. 5). The method, then:
FIG. 5 illustrates the effect of oral apo A-1 peptide mimetic and apoJ peptide on LDL susceptibility to oxidation. […] After 24 hrs blood was collected from the mice shown in FIG. 4, plasma fractionated by FPLC and fractions containing LDL (designated as mLDL for murine LDL) were pooled and LDL susceptibility to oxidation as determined by induction of monocyte chemotactic activity was determined.
Murine LDL, mLDL, from mice that received the D-4F mLDL) or those that received the apoJ peptide (J mLDL) were added to artery wall cell cultures.

Experiment [4] relates to apo E null mice. The settings on record: added to the drinking water, 24 hrs, human artery wall co-culture (FIG. 6). The method, then: FIG. 6 illustrates the effect of oral apoA-1 peptide mimetic and apoJ peptide on HDL protective capacity. […] After 24 hrs blood was collected, plasma fractionated by FPLC and fractions containing HDL (designated as mHDL) were pooled and HDL protective capacity against PAPC oxidation as determined by the induction of monocyte chemotactic activity was determined. For the assay controls the culture wells received no lipoproteins (no additions), the phospholipid PAPC at 20 μg /ml+HPODE, at 1.0 μg/ml, or PAPC+HPODE plus standard normal human HDL (at 350 μg HDL cholesterol/ml and designated as +Cont. h HDL).
For testing the murine HDL, PAPC+HPODE together with murine HDL (+F mHDL or +J mHDL) were added to artery wall cell cultures. […] The murine HDL was used at 100 μg cholesterol/ml.

For a further experiment, the system named is PON1. The settings on record: apo E null mice, added to the drinking water, 24 hrs, plasma (FIG. 7).

Experimental for PON1: After 24 hrs blood was collected and plasma was assayed for PON1 activity.

Ac-LLEQLNEQFNWVSRLANLTQGE-NH2 [D-J336]: the “times more potent than D-4F in preventing LDL oxidation by artery wall cells” value in experiment [1] is listed as 10-25 times. Also, the “activity of mouse HDL in preventing control LDL from inducing monocyte chemotactic activity, compared with control human HDL” value in the experiment on LDL receptor null mice (LDL receptor null mice, 0.25 or 0.5 mg per ml drinking water, 24 or 48 hrs, mouse HDL at 100 μg/ml) is given as “as active as 350 μg/ml of control human HDL”. In addition, the “effectiveness compared with D4F in preventing LDL-induced monocyte chemotactic activity” value in the experiment with LDL receptor null mice (given orally to LDL receptor null mice (FIG. 3)) is “essentially as effective as D4F”. The entries for the “potency compared with D-4F in enhancing HDL protective capacity” value in the experiment on apo E null mice [2] and in the experiment on apo E null mice [2] (listed as D-J peptide) were “as potent as D4F” and “as potent as D-4F”, respectively. Also, the “activity of murine HDL compared with normal human HDL against LDL-induced monocyte chemotactic activity” value with apo E null mice [2] (apoE null mice, peptide in drinking water, 24 hrs, murine HDL at 100 μg/ml) is reported as “as active as 350 μg/ml of normal human HDL”. Also, the “potency compared with D-4F in rendering LDL resistant to oxidation by human artery wall cells (induction of monocyte chemotactic activity)” value was “lightly more potent than D-4F” in the experiment with apo E null mice [3] and “slightly more potent than D4F” in the experiment with apo E null mice [3] (listed as DJ336). Besides, the results for the “potency compared with D-4F in causing HDL to inhibit oxidation of PAPC by HPODE (generation of monocyte chemotactic activity)” value with apo E null mice [4] and in the experiment with apo E null mice [4] (listed as DJ336) were “as potent as D-4F” and “as potent as D4F”, respectively. Also, the results for the “potency compared with D-4F in increasing paraoxonase activity” value in the experiment on PON1 and in the experiment with PON1 (listed as DJ336) were “at least as potent as D-4F” and “at least as potent as D4F”, respectively.
